As a reminder, the Ki is the equilibrium dissociation constant of an inhibitor or competing ligand from its target.

In this experiment the target is T1, human 5HT1A-serotonergic receptor (Homo sapiens, UniProt P08908).
T1 construct: expressed in transfected cells; host or cells: HeLa (human cell line), stably transfected; cell membranes used
T1 sequence (P08908 1-422): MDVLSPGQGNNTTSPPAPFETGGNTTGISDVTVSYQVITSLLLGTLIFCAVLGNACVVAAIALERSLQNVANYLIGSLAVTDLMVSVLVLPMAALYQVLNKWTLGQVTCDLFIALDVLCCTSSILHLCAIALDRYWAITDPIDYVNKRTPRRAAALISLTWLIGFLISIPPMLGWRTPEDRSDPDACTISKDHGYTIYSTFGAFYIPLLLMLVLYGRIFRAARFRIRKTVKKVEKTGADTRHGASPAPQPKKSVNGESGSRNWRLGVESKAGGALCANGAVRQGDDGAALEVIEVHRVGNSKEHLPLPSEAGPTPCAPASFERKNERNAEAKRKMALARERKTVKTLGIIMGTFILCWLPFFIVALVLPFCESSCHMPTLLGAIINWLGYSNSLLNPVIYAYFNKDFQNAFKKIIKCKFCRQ
The experiment is described as follows: Radioligand binding to recombinant 5-HT1A receptors. The settings on record: [3H]8-OH-DPAT 1 nM, membranes of HeLa cells with human 5-HT1A receptor; Ki from IC50 by Cheng & Prusoff; read-out: Binding affinity for 5HT1A receptors, Ki. A digest of the protocol:
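Displacement of 1 nM [3H]8-OH-DPAT (30 min, 30 °C, Tris-HCl pH 7.4 with MgCl2 and pargyline) from recombinant human 5-HT1A in transfected HeLa membranes, stopped by filtration. Specific binding defined against 10 μM 5-HT; IC50 by nonlinear fitting, then Ki by Cheng–Prusoff.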
For the compound `Cc1oc(S(=O)(=O)N2CCCC2)cc1C(=O)N1c2ccccc2CCC1CN1CCN(c2cccc3[nH]ccc23)CC1` (stereo not shown) [Example 68A59, 1-(4-Indolyl)-4-[1-(2-methyl-5-pyrrolidin-1-ylsulfonylfuran-3-carbonyl)-1,2,3,4-tetrahydroquinoline-2-ylmethyl]piperazine], the Ki was determined as 46.5 nM. The value for `O=C(CCOc1ccccc1)N1c2ccccc2CCC1CN1CCN(c2cccc3[nH]ccc23)CC1` (stereo not shown) [Example 68A61, 1-(4-Indolyl)-4-[1-(3-phenoxypropionyl)-1,2,3,4-tetrahydroquinoline-2-ylmethyl]piperazine] was 19.7 nM. `O=C(Cc1ccccc1F)N1c2ccccc2CCC1CN1CCN(c2cccc3[nH]ccc23)CC1` (stereo not shown) [Example 68A63, 1-(4-Indolyl)-4-[1-[2-(2-fluorophenylacetyl)]-1,2,3,4-tetrahydroquinoline-2-ylmethyl]piperazine]: the Ki was 8.7 nM. On to `O=C(Cc1ccccc1C(F)(F)F)N1c2ccccc2CCC1CN1CCN(c2cccc3[nH]ccc23)CC1` (stereo not shown) [Example 68A64, 1-(4-Indolyl)-4-[1-[2-(2-trifluoromethylphenylacetyl)]-1,2,3,4-tetrahydroquinoline-2-ylmethyl]piperazine], for which the Ki turned out to be 13.4 nM. To `O=C(CCCc1ccccc1)N1c2ccccc2CCC1CN1CCN(c2cccc3[nH]ccc23)CC1` (stereo not shown) [Example 68A66, 1-(4-Indolyl)-1-[1-(4-phenylbutanoyl)-1,2,3,4-tetrahydroquinoline-2-ylmethyl]piperazine] belongs 19.6 nM; to `COc1cccc(C(=O)N2c3ccccc3CCC2CN2CCN(c3cccc4[nH]ccc34)CC2)c1` (stereo not shown) [Example 68A67, 1-(4-Indolyl)-4-[1-(3-methoxybenzoyl)-1,2,3,4-tetrahydroquinoline-2-ylmethyl]piperazine], 9.1 nM; to `O=C(c1ccc(O)cc1)N1c2ccccc2CCC1CN1CCN(c2cccc3[nH]ccc23)CC1` (stereo not shown) [Example 68A68, 1-[1-(4-Hydroxybenzoyl)-1,2,3,4-tetrahydroquinoline-2-ylmethyl]-4-(4-indolyl)piperazine], 7.5 nM. Turning to `CCOc1ccc(C(=O)N2c3ccccc3CCC2CN2CCN(c3cccc4[nH]ccc34)CC2)cc1` (stereo not shown) [Example 68A69, 1-[1-(4-Ethoxybenzoyl)-1,2,3,4-tetrahydroquinoline-2-ylmethyl]-4-(4-indolyl)piperazine], the Ki turned out to be 4.2 nM. In the case of `Cc1ccc(C(=O)N2c3ccccc3CCC2CN2CCN(c3cccc4[nH]ccc34)CC2)cc1` (stereo not shown) [Example 68A70, 1-(4-Indolyl)-4-[1-(4-methylbenzoyl)-1,2,3,4-tetrahydroquinoline-2-ylmethyl]piperazine], the Ki was determined as 5.3 nM. To `CS(=O)(=O)N(CC(=O)N1c2ccccc2CCC1CN1CCN(c2cccc3[nH]ccc23)CC1)Cc1ccccc1` (stereo not shown) [Example 68A71, 1-[1-[2-(N-Benzyl-N-methanesulphonylamino)acetyl]-1,2,3,4-tetrahydroquinoline-2-ylmethyl]-4-(4-indolyl)piperazine] belongs 23.5 nM. To `O=C1CC[C@H](C(=O)N2c3ccccc3CCC2CN2CCN(c3cccc4[nH]ccc34)CC2)N1` (stereo partly drawn) [Example 68A73, 1-(4-Indolyl)-4-[1-[(2R)-5-oxopyrrolidine-2-ylcarbonyl]-1,2,3,4-tetrahydroquinoline-2-ylmethyl]piperazine] belongs 17.9 nM. To `O=C(c1ccc[nH]1)N1c2ccccc2CCC1CN1CCN(c2cccc3[nH]ccc23)CC1` (stereo not shown) [Example 68A, 1-(4-Indolyl)-4-[1-(2-pyrrolylcarbonyl)-1,2,3,4-tetrahydroquinoline-2-ylmethyl]piperazine] belongs 9.2 nM.

`Cc1cccc(NC(=O)N2c3ccccc3CCC2CN2CCN(c3cccc4[nH]ccc34)CC2)c1` (stereo not shown) [Example 69A1, 1-(4-Indolyl)-4-[1-(3-methylphenylaminocarbonyl)-1,2,3,4-tetrahydroquinoline-2-ylmethyl]piperazine]: the Ki stood at 17.5 nM. The value for `O=C(Nc1ccc(F)cc1)N1c2ccccc2CCC1CN1CCN(c2cccc3[nH]ccc23)CC1` (stereo not shown) [Example 69A2, 1-[1-(4-Fluorophenylaminocarbonyl)-1,2,3,4-tetrahydroquinoline-2-ylmethyl)-4-(4-indolyl)piperazine] was 24 nM; that for `Cc1ccc(NC(=O)N2c3ccccc3CCC2CN2CCN(c3cccc4[nH]ccc34)CC2)cc1` (stereo not shown) [Example 69A3, 1-(4-Indolyl)-4-[1-(4-methylphenylaminocarbonyl)-1,2,3,4-tetrahydroquinoline-2-ylmethyl]piperazine] was 9.3 nM. Consider `CC(C)NC(=O)N1c2ccccc2CCC1CN1CCN(c2cccc3[nH]ccc23)CC1` (stereo not shown) [Example 69A7, 1-(4-Indolyl)-4-[1-(1-methylethylaminocarbonyl)-1,2,3,4-tetrahydroquinoline-2-ylmethyl]piperazine], for which the Ki was found to be 36 nM. For `CNC(=S)N1c2ccccc2CCC1CN1CCN(c2cccc3[nH]ccc23)CC1` (stereo not shown) [Example 69A8, 1-(4-Indolyl)-4-[1-methylaminothiocarbonyl-1,2,3,4-tetrahydroquinoline-2-ylmethyl)piperazine], the Ki was 39.5 nM. In the case of `O=C(NCc1ccccc1)N1c2ccccc2CCC1CN1CCN(c2cccc3[nH]ccc23)CC1` (stereo not shown) [Example 69A9, 1-(1-Benzylaminocarbonyl-1,2,3,4-tetrahydroquinoline-2-ylmethyl)-4-(4-indolyl)piperazine], the Ki amounted to 25.5 nM. The value for `O=C(NCCc1ccccc1)N1c2ccccc2CCC1CN1CCN(c2cccc3[nH]ccc23)CC1` (stereo not shown) [Example 69A10, 1(4-Indolyl)-4-[1-(2-phenylethylaminocarbonyl)-1,2,3,4-tetrahydroquinoline-2-ylmethyl]piperazine] was 13.5 nM.

Turning to `CCCCCNC(=O)N1c2ccccc2CCC1CN1CCN(c2cccc3[nH]ccc23)CC1` (stereo not shown) [Example 69A11, 1-(4-Indolyl)-4-(1-pentylaminocarbonyl-1,2,3,4-tetrahydroquinoline-2-ylmethyl]piperazine], the inhibitory constant (Ki) amounted to 10.4 nM.

As to `CC(C)(C)NC(=O)N1c2ccccc2CCC1CN1CCN(c2cccc3[nH]ccc23)CC1` (stereo not shown) [Example 69A12, 1-[1-(1,1-Dimethylethylaminocarbonyl)-1,2,3,4-tetrahydroquinoline-2-ylmethyl]-1-(4-indolyl)piperazine], the Ki turned out to be 2.1 nM. As for `COc1ccc(NC(=O)N2c3ccccc3CCC2CN2CCN(c3cccc4[nH]ccc34)CC2)cc1` (stereo not shown) [Example 69A13, 1(4-Indolyl)-4-[1-(4-methoxyphenylaminocarbonyl)-1,2,3,4-tetrahydroquinoline-2-ylmethyl]piperazine], the Ki turned out to be 21.3 nM. The value for `Cc1ccccc1NC(=O)N1c2ccccc2CCC1CN1CCN(c2cccc3[nH]ccc23)CC1` (stereo not shown) [Example 69A, 1-(4-Indolyl)-4-[1-(2-methylphenylaminocarbonyl)-1,2,3,4-tetrahydroquinoline-2-ylmethyl]piperazine] was 7.3 nM; that for `O=S(=O)(c1cccs1)N1c2ccccc2CCC1CN1CCN(c2cccc3[nH]ccc23)CC1` (stereo not shown) [Example 70A1, 1-(4-Indolyl)-4-[1-(2-thienylsulphonyl)-1,2,3,4-tetrahydroquinoline-2-ylmethyl]piperazine] was 18.8 nM. To `COc1ccc(S(=O)(=O)N2c3ccccc3CCC2CN2CCN(c3cccc4[nH]ccc34)CC2)cc1` (stereo not shown) [Example 70A2, 1(4-Indolyl)-4-[1-(4-methoxyphenylsulphonyl)-1,2,3,4-tetrahydroquinoline-2-ylmethyl]piperazine] belongs 18.8 nM; to `Cc1ccc(S(=O)(=O)N2c3ccccc3CCC2CN2CCN(c3cccc4[nH]ccc34)CC2)cc1` (stereo not shown) [Example 70A3, 1(4-Indolyl)-4-[1-(4-methylphenylsulphonyl)-1,2,3,4-tetrahydroquinoline-2-ylmethyl]piperazine], 15.2 nM. The value for `O=S(=O)(c1ccc(F)cc1)N1c2ccccc2CCC1CN1CCN(c2cccc3[nH]ccc23)CC1` (stereo not shown) [Example 70A4, 1-[1-(4-Fluorophenylsulphonyl)-1,2,3,4-tetrahydroquinoline-2-ylmethyl]-4-(4-indolyl)piperazine] was 20.9 nM; that for `N#Cc1ccc(S(=O)(=O)N2c3ccccc3CCC2CN2CCN(c3cccc4[nH]ccc34)CC2)cc1` (stereo not shown) [Example 70A5, 1-[1-(4-Cyanophenylsulphonyl)-1,2,3,4-tetrahydroquinoline-2-ylmethyl]-4-(4-indolyl)piperazine] was 40.3 nM. Turning to `O=S(=O)(Cc1ccccc1)N1c2ccccc2CCC1CN1CCN(c2cccc3[nH]ccc23)CC1` (stereo not shown) [Example 70A6, 1-(4-Indolyl)-4-(1-phenylmethylsulphonyl-1,2,3,4-tetrahydroquinoline-2-ylmethyl)piperazine], the Ki is 4.7 nM. For the compound `O=S(=O)(c1ccccc1)N1c2ccccc2CCC1CN1CCN(c2cccc3[nH]ccc23)CC1` (stereo not shown) [Example 70A, 1-(4-Indolyl)-1-[1-phenylsulphonyl-1,2,3,4-tetrahydroquinoline-2-ylmethyl]piperazine], the Ki turned out to be 7.8 nM. The value for `CC(C)(C)OC(=O)NCCC(=O)N1c2ccccc2CCC1CN1CCN(c2cccc3[nH]ccc23)CC1` (stereo not shown) [Example 71A1, 1-[1-(3-tert-Butoxycarbonylamino)propionyl-1,2,3,4-tetrahydroquinoline-2-ylmethyl]-4-(4-indolyl)piperazine] was 15.2 nM.

The record behind these values is patent US20030162777A1, “Novel N-acylated heterocycles” (Recordati S.A., priority 2001, published 2003).
